{"source": "ChEMBL document CHEMBL1133263", "about": "“A simple polar deacetylated caloporoside derivative is a positive modulator of the GABA(A) chloride channel complex in cortical mammalian neurones” (Bioorg Med Chem Lett, 2000)", "species_on_record": "Rattus norvegicus", "experiment": "Concentration required reduce reversibly the incidence of both spontaneous excitatory post-synaptic currents and inhibitory post-synaptic currents", "format": "functional"}
{"molecule": "CCCCCCCCO[C@H]1O[C@@H](CO)[C@@H](O)[C@H](O)[C@H]1O", "values": [{"measurement": "Concentration", "value": 100, "unit": "µM"}]}
